Experimental data reported in patent US10238631B2, “Sesquiterpene derivatives and their use in inflammation or cancer treatment” (Academia Sinica, priority 2014, dated 2019).

Experiments:
[1] = system: MeWo (No NRAS or BRAF mutation); assay: MTT cell viability assay, MeWo melanoma; assay type: cell-based, human; details: Homo sapiens, MeWo, 24 h
In short: (§1)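 Viability is determined colorimetrically with MTT after a 24 h to 72 h compound treatment. Vehicle wells containing 0.5% DMSO define 100% viability, and treated OD570 values are expressed relative to them.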

[2] = system: MDA-MB-231 (ER−, PR−, Her2−) human breast cancer cells; assay: MTT cell viability assay, MDA-MB-231 cells; assay type: cell-based; details: Homo sapiens, MDA-MB-231, 24 h, read-out: IC50 on cell viability, MDA-MB-231 (ER−, PR−, Her2−)
In short: (§2)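 Viability is scored colorimetrically by MTT after cells, plated at 2×10^3 to 1×10^4 per well the night before, receive compounds for 24 h to 72 h; 0.5% DMSO-treated wells define 100%.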

[3] = system: melanoma cell lines B16-F10, MeWo, A375, A2058, HTB-68; assay: MTT cell viability assay, all melanoma cell lines; assay type: cell-based; details: 24 h, read-out: IC50 values over all types of melanoma cell lines
Protocol: Normal or cancer cells (2×10^3 to 1×10^4 cells/well) were seeded in 96-well plate for overnight and treated with different compounds for 24 h to 72 h. Cells growth were determined by MTT-based colorimetric assays according to. Viability of the test cells treated with vehicle (0.5% DMSO) only was defined as 100% viable. Survival of cells after treatment with DETDs was calculated using the following formula: viable cell number (%)=OD570 (treated cell culture)/OD570 (vehicle control)×100.
Several genes are involved in melanoma development and pathology; specifically, mutation in V-raf murine sarcoma viral oncogene homolog B1 (B-RAF) occurs approximately 50-60% and in neuroblastoma RAS viral oncogene homolog (N-RAS) occurs about 30% of malignant melanomas. A spectrum of wild-type or mutated melanoma cell lines including B16-F10, MeWo, A375, A2058, HTB-68, and melanocyte were used to study anti-melanoma cell proliferation activity of parental phytocompound DET and newly synthesized DETDs.

[4] = system: Melanocyte (Normal cells); assay: MTT cell viability assay, normal melanocytes; assay type: cell-based, human; details: Homo sapiens, Melanocyte, 24 h
In short: as §1

A2058 (BRAF mutation) = assay: MTT cell viability assay, A2058 melanoma; assay type: cell-based, human; details: Homo sapiens, A2058, 24 h
In short: as §1

B16-F10 (NRAS mutation) = assay: MTT cell viability assay, B16-F10 melanoma; assay type: cell-based; details: Mus musculus, B16-F10, 24 h, 24 h, read-out: IC50 on cell viability, B16-F10 (NRAS mutation)
In short: as §1

HTB-68 (NRAS mutation) = assay: MTT cell viability assay, HTB-68 melanoma; assay type: cell-based, human; details: Homo sapiens, 24 h
In short: as §1

[5] = system: M10 normal mammary epithelial cells; assay: MTT cell viability assay, M10 normal cells; assay type: cell-based, human; details: Homo sapiens, Epithelial cell, 24 h
In short: as §2

[6] = system: LPS-induced nitric oxide (NO) production in RAW 264.7 cells; assay: Nitric oxide production in LPS-stimulated macrophages (Griess); assay type: cell-based, mouse; details: Mus musculus; LPS-stimulated RAW264.7, nitrite 24 h after LPS
In short: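 RAW 264.7 macrophages (2×10^5 cells/well) were pretreated with compound for 1 h and then stimulated with 100 ng/μL LPS for 24 h. NO was measured as nitrite in the medium by the Griess reaction. Viability was checked in parallel by MTT.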

A375 (BRAF mutation) = assay: MTT cell viability assay, A375 melanoma; assay type: cell-based, human; details: Homo sapiens, A-375, 24 h, 24 h, MTT; read-out: IC50 on cell viability, A375 (BRAF mutation)
In short: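 A375 cells were seeded at 2×10^3 to 1×10^4 per well overnight and then exposed to compounds for 24 h to 72 h. Viability was measured by MTT absorbance at OD570 relative to 0.5% DMSO vehicle (100%), and IC50 was derived from it. Combination with PLX4032 was scored by combination index.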

[7] = system: TS/A (ER+, Her2−) murine mammary cancer cells; assay: MTT cell viability assay, TS/A cells; assay type: cell-based; details: Mus musculus, 24 h, read-out: IC50 on cell viability, TS/A (ER+, Her2−)
In short: as §2

[8] = system: MCF-7 (ER+, Her2−) human breast cancer cells; assay: MTT cell viability assay, MCF-7 cells; assay type: cell-based; details: MCF7, 24 h, read-out: IC50 on cell viability, MCF-7 (ER+, Her2−)
In short: as §2

[9] = system: RAW264.7 (normal macrophage); assay: MTT cell viability assay, RAW264.7 macrophages; assay type: cell-based, mouse; details: Mus musculus, RAW264.7, 24 h
In short: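 RAW264.7 macrophages (2×10^5 cells/well) pretreated with compounds 1 h, then incubated 24 h with or without 100 ng/μL LPS. Viability by MTT colorimetric assay run in parallel with Griess nitrite measurement.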

## C=C1C(=O)OC2CC3=C[C@@H](C/C(C)=C/C(OC(=O)/C=C/c4ccc(Cl)cc4)[C@H]12)OC3=O (stereo partly shown) [DETD-28]
[1]
  IC50: 6.7 µM
[2]
  IC50: 4.2 µM
[3]
  IC50: 1.6 to 9.9 µM
[4]
  IC50: > 10 µM
A2058 (BRAF mutation)
  IC50: 4.4 µM
B16-F10 (NRAS mutation)
  IC50: 3.9 µM
HTB-68 (NRAS mutation)
  IC50: 6.1 µM
[5]
  IC50: 4.8 µM
[6]
  IC50: 2.1 µM
A375 (BRAF mutation)
  IC50: 3 µM
[7]
  IC50: 1.8 µM
[8]
  IC50: 3.6 µM
[9]
  IC50: > 10 µM

## C=C1C(=O)OC2CC3=C[C@@H](C/C(C)=C/C(OC(=O)c4cccs4)[C@H]12)OC3=O (stereo partly shown) [DETD-30]
[1]
  IC50: 9.1 µM
[2]
  IC50: 4.3 µM
[3]
  IC50: 1.6 to 9.9 µM
[4]
  IC50: > 10 µM
A2058 (BRAF mutation)
  IC50: 5.2 µM
B16-F10 (NRAS mutation)
  IC50: 2.5 µM
HTB-68 (NRAS mutation)
  IC50: 7.6 µM
[5]
  IC50: > 7.5 µM
[6]
  IC50: 1.6 µM
A375 (BRAF mutation)
  IC50: 3.4 µM
[7]
  IC50: 2.4 µM
[8]
  IC50: 3.7 µM
[9]
  IC50: > 10 µM

## C=C1C(=O)OC2CC3=C[C@@H](C/C(C)=C/C(OC(=O)c4ccc(C)cc4)[C@H]12)OC3=O (stereo partly shown) [DETD-33]
[1]
  IC50: 6.7 µM
[2]
  IC50: 4.2 µM
[3]
  IC50: 1.6 to 9.9 µM
[4]
  IC50: > 10 µM
A2058 (BRAF mutation)
  IC50: 4.2 µM
B16-F10 (NRAS mutation)
  IC50: 2.2 µM
HTB-68 (NRAS mutation)
  IC50: 5.9 µM
[5]
  IC50: > 7.5 µM
[6]
  IC50: 1.9 µM
A375 (BRAF mutation)
  IC50: 2.9 µM
[7]
  IC50: 1.8 µM
[8]
  IC50: 2.7 µM
[9]
  IC50: > 10 µM

## C=C1C(=O)OC2CC3=C[C@@H](C/C(C)=C/C(OC(=O)c4ccc(Br)cc4)[C@H]12)OC3=O (stereo partly shown) [DETD-34]
[1]
  IC50: 7.3 µM
[2]
  IC50: 2.2 µM
[3]
  IC50: 1.6 to 9.9 µM
[4]
  IC50: > 10 µM
A2058 (BRAF mutation)
  IC50: 4.4 µM
B16-F10 (NRAS mutation)
  IC50: 2 µM
HTB-68 (NRAS mutation)
  IC50: 6.8 µM
[5]
  IC50: > 7.5 µM
[6]
  IC50: 2.3 µM
A375 (BRAF mutation)
  IC50: 3.1 µM
[7]
  IC50: 3 µM
[8]
  IC50: 6.1 µM
[9]
  IC50: > 10 µM

## C=C1C(=O)OC2CC3=C[C@@H](C/C(C)=C/C(OC(=O)/C=C/c4cccc(C(F)(F)F)c4)[C@H]12)OC3=O (stereo partly shown) [DETD-48]
[1]
  IC50: > 10 µM
[2]
  IC50: 8.2 µM
[4]
  IC50: > 10 µM
A2058 (BRAF mutation)
  IC50: > 10 µM
B16-F10 (NRAS mutation)
  IC50: > 10 µM
HTB-68 (NRAS mutation)
  IC50: > 10 µM
[5]
  IC50: > 7.5 µM
[6]
  IC50: > 10 µM
A375 (BRAF mutation)
  IC50: 6.9 µM
[7]
  IC50: > 7.5 µM
[8]
  IC50: > 7.5 µM
[9]
  IC50: > 10 µM

## C=C1C(=O)OC2CC3=C[C@@H](C/C(C)=C/C(OC(=O)/C=C/c4ccc(OC)c(OC)c4)[C@H]12)OC3=O (stereo partly shown) [DETD-49]
[1]
  IC50: > 10 µM
[2]
  IC50: 9.5 µM
[4]
  IC50: > 10 µM
A2058 (BRAF mutation)
  IC50: > 10 µM
B16-F10 (NRAS mutation)
  IC50: > 10 µM
HTB-68 (NRAS mutation)
  IC50: > 10 µM
[5]
  IC50: > 7.5 µM
[6]
  IC50: 3.4 µM
A375 (BRAF mutation)
  IC50: 4.9 µM
[7]
  IC50: > 7.5 µM
[8]
  IC50: > 7.5 µM
[9]
  IC50: > 10 µM

## C=C1C(=O)OC2CC3=C[C@@H](C/C(C)=C/C(OC(=O)/C=C/c4cccc(OCC)c4)[C@H]12)OC3=O (stereo partly shown) [DETD-50]
[1]
  IC50: 9.3 µM
[2]
  IC50: 7.7 µM
[4]
  IC50: > 10 µM
A2058 (BRAF mutation)
  IC50: 8.7 µM
B16-F10 (NRAS mutation)
  IC50: 9.4 µM
HTB-68 (NRAS mutation)
  IC50: > 10 µM
[5]
  IC50: > 7.5 µM
[6]
  IC50: > 10 µM
A375 (BRAF mutation)
  IC50: 4.6 µM
[7]
  IC50: 4.4 µM
[8]
  IC50: > 7.5 µM
[9]
  IC50: > 10 µM

## C=C1C(=O)OC2CC3=C[C@@H](C/C(C)=C/C(OC(=O)CCc4cccc5ccccc45)[C@H]12)OC3=O (stereo partly shown) [DETD-51]
[1]
  IC50: > 10 µM
[2]
  IC50: > 15 µM
[4]
  IC50: > 10 µM
A2058 (BRAF mutation)
  IC50: > 10 µM
B16-F10 (NRAS mutation)
  IC50: > 10 µM
HTB-68 (NRAS mutation)
  IC50: > 10 µM
[5]
  IC50: > 7.5 µM
[6]
  IC50: > 10 µM
A375 (BRAF mutation)
  IC50: > 10 µM
[7]
  IC50: > 7.5 µM
[8]
  IC50: > 7.5 µM
[9]
  IC50: > 10 µM

## C=C1C(=O)OC2CC3=C[C@@H](C/C(C)=C/C(OC(=O)Cc4cccc5cccnc45)[C@H]12)OC3=O (stereo partly shown) [DETD-52]
[1]
  IC50: > 10 µM
[2]
  IC50: > 15 µM
[4]
  IC50: > 10 µM
A2058 (BRAF mutation)
  IC50: > 10 µM
B16-F10 (NRAS mutation)
  IC50: > 10 µM
HTB-68 (NRAS mutation)
  IC50: > 10 µM
[5]
  IC50: > 7.5 µM
[6]
  IC50: > 10 µM
A375 (BRAF mutation)
  IC50: > 10 µM
[7]
  IC50: > 7.5 µM
[8]
  IC50: > 7.5 µM
[9]
  IC50: > 10 µM

## C=C1C(=O)OC2CC3=C[C@@H](C/C(C)=C/[C@@H](OC(=O)[C@H](OC)c4ccc5ccccc5c4)[C@H]12)OC3=O (stereo partly shown) [DETD-57]
[1]
  IC50: > 10 µM
[2]
  IC50: > 15 µM
[4]
  IC50: > 10 µM
A2058 (BRAF mutation)
  IC50: 8.3 µM
B16-F10 (NRAS mutation)
  IC50: 8.1 µM
HTB-68 (NRAS mutation)
  IC50: 8 µM
[5]
  IC50: > 7.5 µM
[6]
  IC50: > 10 µM
A375 (BRAF mutation)
  IC50: 4.2 µM
[7]
  IC50: > 7.5 µM
[8]
  IC50: > 7.5 µM
[9]
  IC50: > 10 µM

## C=C1C(=O)OC2CC3=C[C@@H](C/C(C)=C/[C@@H](OC(=O)Cc4coc5ccccc45)[C@H]12)OC3=O (stereo partly shown) [DETD-59]
[1]
  IC50: > 10 µM
[2]
  IC50: 5.1 µM
[4]
  IC50: > 10 µM
A2058 (BRAF mutation)
  IC50: 6 µM
B16-F10 (NRAS mutation)
  IC50: 6.3 µM
HTB-68 (NRAS mutation)
  IC50: 4.8 µM
[5]
  IC50: > 7.5 µM
[6]
  IC50: > 10 µM
A375 (BRAF mutation)
  IC50: 2.6 µM
[7]
  IC50: 3.5 µM
[8]
  IC50: > 7.5 µM
[9]
  IC50: > 10 µM

## C=C1C(=O)OC2CC3=C[C@@H](C/C(C)=C/[C@H](OC(=O)Cc4cccc5ccccc45)[C@H]12)OC3=O (stereo partly shown) [DETD-62]
[1]
  IC50: > 10 µM
[2]
  IC50: 7.4 µM
[4]
  IC50: > 10 µM
A2058 (BRAF mutation)
  IC50: 8.7 µM
B16-F10 (NRAS mutation)
  IC50: 9.3 µM
HTB-68 (NRAS mutation)
  IC50: 9 µM
[5]
  IC50: > 7.5 µM
[6]
  IC50: > 10 µM
A375 (BRAF mutation)
  IC50: 5 µM
[7]
  IC50: > 7.5 µM
[8]
  IC50: > 7.5 µM
[9]
  IC50: > 10 µM
